Measured values published in patent publication EP4818168A1, “FUSED RING COMPOUND, PHARMACEUTICAL COMPOSITION THEREOF AND USE THEREOF” (priority 2023, dated 2025).
Read-outs that look alike come from different tables or passages of the source.

Assays:
AURKA = target: T1, AURKA (Homo sapiens, UniProt O14965); assay type: cell-based
T1 construct: endogenous in cells; host or cells: Jurkat cells
T1 sequence (O14965 1-403): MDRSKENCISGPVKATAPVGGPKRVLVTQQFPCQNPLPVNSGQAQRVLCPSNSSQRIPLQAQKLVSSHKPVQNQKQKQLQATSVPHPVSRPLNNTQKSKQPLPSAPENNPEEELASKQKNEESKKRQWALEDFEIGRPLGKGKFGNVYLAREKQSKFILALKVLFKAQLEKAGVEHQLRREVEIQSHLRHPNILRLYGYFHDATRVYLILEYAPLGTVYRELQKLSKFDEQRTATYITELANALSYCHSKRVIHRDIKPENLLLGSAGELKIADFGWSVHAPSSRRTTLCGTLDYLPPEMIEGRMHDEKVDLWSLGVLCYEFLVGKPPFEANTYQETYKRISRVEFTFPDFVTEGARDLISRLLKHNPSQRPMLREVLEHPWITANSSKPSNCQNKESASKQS
Method in brief: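 AURKA degradation read by western blot: band signal, fluorescent or chemiluminescent, curve-fitted to derive DC50. Cells were Jurkat, plated at 1×10^6 cells/500 µL with compound, then lysed and blotted onto nitrocellulose, primary antibody overnight at 4°C.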

HCC1806 cells = assay: CTG assay of compound inhibition on cell viability (HCC1806 cells); assay type: cell-based; details: Homo sapiens, read-out: IC50 in HCC1806 Cells
Description: CellTiter-Glo (CTG) is a rapid cell viability test method based on ATP detection. […] Adenosine triphosphate (ATP) participates in various enzymatic reactions in organisms and is an indicator of living cell metabolism. Its content directly reflects the number of living cells and cell status. During the experiment, equal volume of CTG reagent is added to the cultured cells to measure the luminescence value. The chemiluminescent signal value is proportional to the amount of ATP, thus reflecting the number of viable cells. Therefore, cell viability can be obtained by detecting the ATP content. Compounds that affect cell viability will inhibit cell viability in a concentration-dependent manner, allowing a curve to be fitted to obtain the IC50 value.
The experimental procedure is as follows: • 11. Place the cell suspension in a 15 mL centrifuge tube, centrifuge at 1000 rpm for 5 min at room temperature, discard the supernatant, and collect the cell pellet. • 12. Resuspend the cell pellet with preheated complete cell culture medium (RPMI1640+10%FBS+1%PS), and use a Countess® automated cell counter to detect cell viability and density. The cell viability must be above 90%. • 13. […] Transfer the compound solution to a 96-well plate seeded with cells (final concentration of DMSO 0.1%), and place in a cell incubator at 37°C, 5% CO2 for 6 days. • 15. […] Protect from light during the whole process. Perform optical signal readings using a SpectraMax i3x reader. • 16. Data analysis: Remaining activity (%) = 100% * (1 - ((LumDMSO - Lummedium) - Lumsample) / (LumDMSO - LumPBS/medium)). Use GraphPad Prism 9.0 software to draw an S-shaped dose-survival rate curve and calculate the IC50 value using a nonlinear regression model.

[1] = 100 nM compound, Jurkat cells, 24 h, Table 1
[2] = 1 µM compound, Jurkat cells, 24 h, Table 1
[3] = 144 h, HCC1806 cells, 6 days, CellTiter-Glo

Row | Structure (SMILES) | Percentage of AURKA Degradation Induced by 100 nM Compound in Jurkat Cells (AURKA) | Percentage of AURKA Degradation Induced by 1 µM Compound in Jurkat Cells (AURKA) | IC50 (HCC1806 cells; HCC1806, 144 h) [nM] | Percentage of AURKA Degradation Induced by 100 nM Compound in Jurkat Cells (AURKA; [1]) | Percentage of AURKA Degradation Induced by 1 µM Compound in Jurkat Cells (AURKA; [2]) | IC50 (HCC1806 cells; [3]) [nM]
1 | COc1cc(Nc2ncc3c(n2)-c2ccc(Cl)cc2C(c2c(F)cccc2OC)=NC3)ccc1C(=O)N[C@H]1C[C@H](C#Cc2cccc3c2CN(C2CCC(=O)NC2=O)C3=O)C1 (relative stereo) [Compound A7] | ++ (key: +: Degradation ≤ 30%; ++: 30% < Degradation ≤ 70%; +++: Degradation > 70%) | ++ (key: +: Degradation ≤ 30%; ++: 30% < Degradation ≤ 70%; +++: Degradation > 70%) | 1000 to 10000 |  |  | 
2 | O=C1CCC(N2C(=O)c3cccc(NCCOCCNC(=O)c4ccc(Nc5ncc6c(n5)-c5ccc(Cl)cc5C(c5c(F)cccc5F)=NC6)cc4)c3C2=O)C(=O)N1 (stereo not drawn) [Compound A1] |  |  |  | ++ (30% < Degradation ≤ 70%) | ++ (30% < Degradation ≤ 70%) | < 1000
3 | COc1cc(Nc2ncc3c(n2)-c2ccc(Cl)cc2C(c2c(F)cccc2OC)=NC3)ccc1C(=O)N(C)CCCCCNc1cccc2c1C(=O)N(C1CCC(=O)NC1=O)C2=O (stereo not drawn) [Compound A2] |  |  |  | ++ (30% < Degradation ≤ 70%) | ++ (30% < Degradation ≤ 70%) | < 1000
4 | COc1cc(Nc2ncc3c(n2)-c2ccc(Cl)cc2C(c2c(F)cccc2OC)=NC3)ccc1C(=O)NC1CN(CCOc2cccc3c2C(=O)N(C2CCC(=O)NC2=O)C3=O)C1 (stereo not drawn) [Compound A5] |  |  |  | ++ (30% < Degradation ≤ 70%) | ++ (30% < Degradation ≤ 70%) | < 1000
5 | COc1cc(Nc2ncc3c(n2)-c2ccc(Cl)cc2C(c2c(F)cccc2OC)=NC3)ccc1C(=O)NCCN1CCN(c2ccc(N3CCC(=O)NC3=O)cc2)CC1 [Compound A8] |  |  |  | +++ (Degradation > 70%) | +++ (Degradation > 70%) | < 1000
6 | O=C1CCN(c2ccc(N3CCN(CCNC(=O)c4ccc(Nc5ncc6c(n5)-c5ccc(Cl)cc5C(c5c(F)cccc5F)=NC6)cc4)CC3)cc2)C(=O)N1 [Compound A10] |  |  | < 1000 | ++ (30% < Degradation ≤ 70%) | ++ (30% < Degradation ≤ 70%) | 
7 | CN(CCN1CCN(c2ccc(N3CCC(=O)NC3=O)cc2)CC1)C(=O)c1ccc(Nc2ncc3c(n2)-c2ccc(Cl)cc2C(c2c(F)cccc2F)=NC3)cc1 [Compound A11] |  |  | < 1000 | +++ (Degradation > 70%) | ++ (30% < Degradation ≤ 70%) | 
8 | O=C1CCN(c2ccc(N3CCC(CNC(=O)c4ccc(Nc5ncc6c(n5)-c5ccc(Cl)cc5C(c5c(F)cccc5F)=NC6)cc4)CC3)cc2)C(=O)N1 [Compound A12] |  |  | < 1000 | + (Degradation ≤ 30%) | + (Degradation ≤ 30%) | 
9 | COc1cc(Nc2ncc3c(n2)-c2ccc(Cl)cc2C(c2c(F)cccc2OC)=NC3)ccc1C(=O)NCCN1CCC(c2ccc(N3CCC(=O)NC3=O)cc2)CC1 [Compound A15] |  |  | < 1000 | +++ (Degradation > 70%) | +++ (Degradation > 70%) | 
10 | COc1cc(Nc2ncc3c(n2)-c2ccc(Cl)cc2C(c2c(F)cccc2OC)=NC3)ccc1C(=O)NCCN1CCC(c2ccc(N3CCC(=O)NC3=O)cn2)CC1 [Compound A16] |  |  | < 1000 | +++ (Degradation > 70%) | ++ (30% < Degradation ≤ 70%) | 
11 | COc1cc(Nc2ncc3c(n2)-c2ccc(Cl)cc2C(c2c(F)cccc2OC)=NC3)ccc1C(=O)NCCN1Cc2cc3c(cc2C1)C(=O)N(C1CCC(=O)NC1=O)C3=O (stereo not drawn) [Compound A17] |  |  | < 1000 | + (Degradation ≤ 30%) | + (Degradation ≤ 30%) | 
